From patent US9079913B2, “Spiro-oxindole MDM2 antagonists” (The Regents of the University of Michigan, priority 2009, dated 2015)
Read-outs that look alike come from different tables or passages of the source.

What was measured:
[1] = target: recombinant human His-tagged MDM2 protein (residues 1-118) (Homo sapiens (Human), UniProt Q00987); test: Fluorescence-polarization MDM2 binding assay;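 note: fluorescence polarization read after three hours of incubation in potassium phosphate buffer containing bovine gamma globulin and Triton X-100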
[2] = system: Isogenic HCT-116 colon cancer cell lines; test: cells; type: cell-based;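 note: cells grown in 96-well plates in McCoy's 5A medium with 10% FBS, exposed to compound for 4 days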
Description: Cells were seeded in 96-well flat bottom cell culture plates at a density of 2−3×10^3 cells/well with compounds and incubated for 4 days.

[3] = system: cancer cell lines with wild-type p53 / mutated or deleted p53 (ATCC); test: Cell growth assay (WST-8), other cancer cell lines; type: cell-based
[4] = Table 19D, read-out: MDM2 Binding Affinities IC50
[5] = Homo sapiens, HCT-116, read-out: HCT116p53KO IC50, Table 19D, HCT116 p53KO
[6] = Homo sapiens, HCT-116, read-out: HCT116p53WT IC50, Table 19D, HCT116 p53WT
[7] = Homo sapiens, LNCaP, Table 19D, LNCaP cells, read-out: LNCaP IC50
[8] = Homo sapiens, PC-3, Table 19D, PC3 cells, read-out: PC3 IC50
[9] = Table 19A, FP binding assay, read-out: MDM2 IC50
[10] = Homo sapiens, HCT-116, read-out: HCT-116 (p53-/-) IC50, Table 19A, HCT-116 p53-/-, cell growth
[11] = Homo sapiens, HCT-116, read-out: HCT-116 (p53 wild-type) IC50, Table 19A, HCT-116 p53 wild-type, cell growth
[12] = Homo sapiens, LNCaP, Table 19A, LNCAP cells, p53 wild-type, cell growth, read-out: LNCAP (p53 wild-type) IC50
[13] = Homo sapiens, PC-3, Table 19A, PC-3 cells, deleted p53, cell growth, read-out: PC-3 (deleted p53) IC50
[14] = Homo sapiens, SJSA-1, Table 19A, SJSA-1 cells, p53 wild-type, cell growth, read-out: SJSA-1 (p53 wild-type) IC50
[15] = Table 19B, read-out: Binding affinities to MDM2 protein as determined by FP based assay IC50
[16] = Homo sapiens, HCT-116, read-out: Inhibition of cell growth IC50, HCT116 p53 KO, Table 19B, HCT116 p53 KO
[17] = Homo sapiens, HCT-116, read-out: Inhibition of cell growth IC50, HCT116 p53 WT, Table 19B, HCT116 p53 WT
[18] = Homo sapiens, LNCaP, Table 19B, LNCaP cells, read-out: Inhibition of cell growth IC50, LNCaP
[19] = Homo sapiens, PC-3, Table 19B, PC3 cells, read-out: Inhibition of cell growth IC50, PC3

Sequence of recombinant human His-tagged MDM2 protein (residues 1-118) (Q00987 1-118): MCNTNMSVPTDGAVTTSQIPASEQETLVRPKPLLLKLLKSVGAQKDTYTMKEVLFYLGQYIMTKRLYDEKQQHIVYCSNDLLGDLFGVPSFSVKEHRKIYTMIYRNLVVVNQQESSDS

Q: With `CC(C)(C)C[C@H]1N[C@@H](C(=O)NCC[C@H](O)CO)[C@H](c2cccc(Cl)c2)[C@@]12C(=O)Nc1cc(F)ccc12` [MI-519-15] as the molecule, how does the IC50 [1, 4] read?
A: < 1 µM

Q: What about the IC50 [2, 5] of the same molecule?
A: > 10 µM

Q: What about the IC50 [2, 6] of the same molecule?
A: < 3 µM

Q: What about the IC50 [3, 7] of the same molecule?
A: < 5 µM

Q: And the IC50 [3, 8]?
A: > 10 µM

Q: Which IC50 [1, 9] does the source give for `CC(=O)OC(C)(C)C(=O)N1CC(NC(=O)[C@@H]2N[C@H](CC(C)(C)C)[C@]3(C(=O)Nc4cc(Cl)ccc43)[C@H]2c2cccc(Cl)c2F)C1` [MI-914] here?
A: < 1 µM

Q: And the IC50 [2, 10]?
A: > 10 µM

Q: What about the IC50 [2, 11] of the same molecule?
A: < 3 µM

Q: What about the IC50 [3, 12] of the same molecule?
A: < 3 µM

Q: What about the IC50 [3, 13] of the same molecule?
A: > 5 µM

Q: What about the IC50 [3, 14] of the same molecule?
A: < 3 µM

Q: `CC(C)(C)C[C@H]1N[C@@H](C(=O)NC2CN(C(=O)NC3CCCCC3)C2)[C@H](c2cccc(Cl)c2F)[C@@]12C(=O)Nc1cc(Cl)ccc12` [MI-913] was tested. Which IC50 [1, 9] did it give?
A: < 3 µM

Q: And the IC50 [2, 10]?
A: 8.8 µM

Q: And the IC50 [2, 11]?
A: < 5 µM

Q: And the IC50 [3, 12]?
A: < 5 µM

Q: What about the IC50 [3, 13] of the same molecule?
A: 4.9 µM

Q: What about the IC50 [3, 14] of the same molecule?
A: < 5 µM

Q: How did the IC50 [1, 15] turn out when `CN1[C@@H](C(=O)NCC[C@H](O)CO)[C@H](c2cccc(Cl)c2)[C@@]2(C(=O)Nc3cc(Cl)c(F)cc32)[C@H]1CCc1cccs1` [MI-714] was run?
A: > 10 µM

Q: And the IC50 [2, 16]?
A: 7.5 ± 0.3 µM

Q: What about the IC50 [2, 17] of the same molecule?
A: 8.6 ± 0.1 µM

Q: What about the IC50 [3, 18] of the same molecule?
A: 4.3 µM

Q: And the IC50 [3, 19]?
A: 7.7 ± 1.6 µM

Q: How did the IC50 [1, 9] turn out when `CC(C)(C)C[C@H]1N[C@@H](C(=O)NC2CCN(CCO)CC2)[C@H](c2cccc(Cl)c2F)[C@@]12C(=O)Nc1cc(Cl)ccc12` [MI-784] was run?
A: < 0.5 µM

Q: And the IC50 [2, 10]?
A: 10.3 µM

Q: What about the IC50 [2, 11] of the same molecule?
A: 0.4 µM

Q: And the IC50 [3, 14]?
A: 0.7 µM

Q: What does the source list for `CN1CCC(NC(=O)[C@@H]2N[C@H](CC(C)(C)C)[C@]3(C(=O)Nc4cc(Cl)ccc43)[C@H]2c2cccc(Cl)c2F)CC1` [MI-519-52]?
A: IC50 [1, 4]: < 1 µM; IC50 [2, 5]: > 5 µM; IC50 [2, 6]: < 1 µM; IC50 [3, 7]: < 1 µM; IC50 [3, 8]: > 3 µM; IC50 ([3]; Homo sapiens, Table 19D, SJSA-1 cells, unit inferred, read-out: SJSA-1): < 1 µM

Q: For `CN1[C@@H](C(=O)NCC[C@H](O)CO)[C@H](c2cccc(Cl)c2)[C@@]2(C(=O)Nc3cc(Cl)c(F)cc32)[C@H]1CCCc1cccs1` [MI-711], which IC50 [1, 15] is on record?
A: > 5 µM

Q: What about the IC50 [2, 16] of the same molecule?
A: 6.3 ± 2.9 µM

Q: And the IC50 [2, 17]?
A: 8.6 ± 1.2 µM

Q: What about the IC50 [3, 18] of the same molecule?
A: 4.8 ± 1.1 µM

Q: And the IC50 [3, 19]?
A: 9.3 ± 2.5 µM

Q: For `O=C(NCC[C@H](O)CO)[C@@H]1N[C@H](CC2CCCCC2)[C@]2(C(=O)Nc3cc(Cl)c(F)cc32)[C@H]1c1cccc(Cl)c1` [MI-716C], which IC50 [1, 15] is on record?
A: < 1 µM

Q: What about the IC50 ([2]; read-out: Inhibition of cell growth IC50, HCT116 p53 KO, Table 19B, HCT116 p53 KO) of the same molecule?
A: 12 ± 3.4 µM

Q: What about the IC50 ([2]; read-out: Inhibition of cell growth IC50, HCT116 p53 WT, Table 19B, HCT116 p53 WT) of the same molecule?
A: 0.7 ± 0.2 µM

Q: What about the IC50 ([3]; Table 19B, LNCaP cells, read-out: Inhibition of cell growth IC50, LNCaP) of the same molecule?
A: 0.8 ± 0.1 µM

Q: What about the IC50 ([3]; Table 19B, PC3 cells, read-out: Inhibition of cell growth IC50, PC3) of the same molecule?
A: 8 ± 2 µM

Q: Which results are given for `CC(C)(C)C[C@H]1N[C@@H](C(=O)NCC[C@@](C)(O)CO)[C@H](c2cccc(Cl)c2F)[C@@]12C(=O)Nc1cc(Cl)ccc12` [MI-790]?
A: IC50 [1, 9]: < 3 µM; IC50 [2, 10]: > 10 µM; IC50 [2, 11]: < 3 µM; IC50 [3, 12]: < 3 µM; IC50 [3, 13]: > 10 µM; IC50 [3, 14]: < 3 µM

Q: `CC(=O)N1CC(NC(=O)[C@@H]2N[C@H](CC(C)(C)C)[C@]3(C(=O)Nc4cc(Cl)ccc43)[C@H]2c2cccc(Cl)c2F)C1` [MI-915] was tested. Which IC50 [1, 9] did it give?
A: < 3 µM

Q: What about the IC50 [2, 10] of the same molecule?
A: > 30 µM

Q: And the IC50 [2, 11]?
A: < 10 µM

Q: And the IC50 [3, 12]?
A: < 10 µM

Q: And the IC50 [3, 13]?
A: > 30 µM

Q: And the IC50 [3, 14]?
A: < 10 µM

Q: What does the source list for `O=C(NCC[C@H](O)CO)[C@@H]1N[C@H](CCc2ccccc2)[C@]2(C(=O)Nc3cc(Cl)c(F)cc32)[C@H]1c1cccc(Cl)c1` [MI-701]?
A: IC50 [1, 15]: > 10 µM; IC50 [2, 16]: 33.8 ± 14.6 µM; IC50 [2, 17]: 16.7 ± 13 µM; IC50 [3, 18]: 3 ± 3.5 µM; IC50 [3, 19]: 48.9 ± 22.4 µM

Q: Which IC50 [1, 15] does the source give for `O=C(NCC[C@H](O)CO)[C@@H]1N[C@H](CCc2ccsc2)[C@]2(C(=O)Nc3cc(Cl)c(F)cc32)[C@H]1c1cccc(Cl)c1` [MI-707] here?
A: < 5 µM

Q: What about the IC50 [2, 16] of the same molecule?
A: 1.3 ± 0.2 µM

Q: And the IC50 [2, 17]?
A: 0.6 ± 0.1 µM

Q: What about the IC50 [3, 18] of the same molecule?
A: 0.3 µM

Q: And the IC50 [3, 19]?
A: 4.6 ± 2.9 µM

Q: For `CC[C@H]1N[C@@H](C(=O)NCCN2CCOCC2)[C@H](c2cccc(Cl)c2)[C@@]12C(=O)Nc1cc(Cl)c(F)cc12` [MI-319-39], which IC50 ([1]; Table 19C, read-out: Bidning affinities to MDM2 as determined using FP assay IC50) is on record?
A: > 10 µM

Q: And the IC50 ([2]; Homo sapiens, HCT-116, read-out: Cell growth inhibition using WST assay, HCT116 p53KO IC50, Table 19C, HCT116 p53KO)?
A: > 10 µM

Q: And the IC50 ([2]; Homo sapiens, HCT-116, read-out: Cell growth inhibition using WST assay, HCT116 p53WT IC50, Table 19C, HCT116 p53WT)?
A: > 3 µM

Q: And the IC50 ([3]; Homo sapiens, LNCaP, Table 19C, LNCaP cells, read-out: Cell growth inhibition using WST assay, LNCaP IC50)?
A: > 3 µM

Q: And the IC50 ([3]; Homo sapiens, PC-3, Table 19C, PC3 cells, read-out: Cell growth inhibition using WST assay, PC3 IC50)?
A: > 10 µM
